Experimental data: patent publication US20200291018A1, “TAM KINASE INHIBITORS” (SYROS PHARMACEUTICALS, INC., priority 2017, published 2020)

Columns and labels:
AXL = biological target: T1, AXL (Homo sapiens, UniProt P30530); assay: TR-FRET kinase activity assay, AXL; assay type: biochemical; conditions: ATP at Km, 60 minutes
T1 sequence (P30530 26-894): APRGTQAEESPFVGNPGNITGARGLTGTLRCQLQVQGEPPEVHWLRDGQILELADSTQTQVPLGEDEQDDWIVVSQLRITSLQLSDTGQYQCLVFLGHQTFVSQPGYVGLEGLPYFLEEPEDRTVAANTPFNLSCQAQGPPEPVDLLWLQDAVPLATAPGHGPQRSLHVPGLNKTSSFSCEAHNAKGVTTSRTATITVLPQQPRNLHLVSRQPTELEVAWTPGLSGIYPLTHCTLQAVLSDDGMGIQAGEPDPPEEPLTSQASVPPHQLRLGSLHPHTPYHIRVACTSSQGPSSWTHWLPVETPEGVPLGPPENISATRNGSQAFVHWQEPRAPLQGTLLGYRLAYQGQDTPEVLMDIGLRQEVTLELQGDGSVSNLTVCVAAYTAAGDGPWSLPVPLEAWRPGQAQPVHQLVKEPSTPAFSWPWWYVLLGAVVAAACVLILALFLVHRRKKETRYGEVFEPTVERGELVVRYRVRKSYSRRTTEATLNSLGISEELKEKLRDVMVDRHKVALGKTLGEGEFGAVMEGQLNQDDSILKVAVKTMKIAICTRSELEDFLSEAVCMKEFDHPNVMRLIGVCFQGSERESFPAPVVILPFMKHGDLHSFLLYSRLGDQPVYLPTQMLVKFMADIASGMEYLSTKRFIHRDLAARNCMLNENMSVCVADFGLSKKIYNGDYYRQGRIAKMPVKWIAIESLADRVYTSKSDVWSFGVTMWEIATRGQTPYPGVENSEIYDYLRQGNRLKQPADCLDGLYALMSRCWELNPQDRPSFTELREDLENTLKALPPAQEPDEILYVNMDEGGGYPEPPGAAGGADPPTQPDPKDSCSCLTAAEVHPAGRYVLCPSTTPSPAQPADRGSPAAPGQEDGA
Procedure, shortened: (§1)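 Steps: compound, enzyme and labeled peptide combined at RT (50 mM HEPES pH 7.5, 10 mM MgCl2, 1 mM DTT); ATP added at Km; 60 min reaction; EDTA quench; Eu-antibody development 30 min in darkness; TR-FRET measured and IC50 fitted.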

MERTK = biological target: T2, MERTK (Homo sapiens, UniProt Q12866); assay: TR-FRET kinase activity assay, MERTK; assay type: biochemical; conditions: for IC50: TR-FRET activity assay, ATP at Km, 60 minutes, read-out: Mer IC50; for Mer/Flt3 ratio (FLT3 IC50/Mer IC50): ratio calculated as FLT3 IC50/Mer IC50
T2 sequence (Q12866 21-999): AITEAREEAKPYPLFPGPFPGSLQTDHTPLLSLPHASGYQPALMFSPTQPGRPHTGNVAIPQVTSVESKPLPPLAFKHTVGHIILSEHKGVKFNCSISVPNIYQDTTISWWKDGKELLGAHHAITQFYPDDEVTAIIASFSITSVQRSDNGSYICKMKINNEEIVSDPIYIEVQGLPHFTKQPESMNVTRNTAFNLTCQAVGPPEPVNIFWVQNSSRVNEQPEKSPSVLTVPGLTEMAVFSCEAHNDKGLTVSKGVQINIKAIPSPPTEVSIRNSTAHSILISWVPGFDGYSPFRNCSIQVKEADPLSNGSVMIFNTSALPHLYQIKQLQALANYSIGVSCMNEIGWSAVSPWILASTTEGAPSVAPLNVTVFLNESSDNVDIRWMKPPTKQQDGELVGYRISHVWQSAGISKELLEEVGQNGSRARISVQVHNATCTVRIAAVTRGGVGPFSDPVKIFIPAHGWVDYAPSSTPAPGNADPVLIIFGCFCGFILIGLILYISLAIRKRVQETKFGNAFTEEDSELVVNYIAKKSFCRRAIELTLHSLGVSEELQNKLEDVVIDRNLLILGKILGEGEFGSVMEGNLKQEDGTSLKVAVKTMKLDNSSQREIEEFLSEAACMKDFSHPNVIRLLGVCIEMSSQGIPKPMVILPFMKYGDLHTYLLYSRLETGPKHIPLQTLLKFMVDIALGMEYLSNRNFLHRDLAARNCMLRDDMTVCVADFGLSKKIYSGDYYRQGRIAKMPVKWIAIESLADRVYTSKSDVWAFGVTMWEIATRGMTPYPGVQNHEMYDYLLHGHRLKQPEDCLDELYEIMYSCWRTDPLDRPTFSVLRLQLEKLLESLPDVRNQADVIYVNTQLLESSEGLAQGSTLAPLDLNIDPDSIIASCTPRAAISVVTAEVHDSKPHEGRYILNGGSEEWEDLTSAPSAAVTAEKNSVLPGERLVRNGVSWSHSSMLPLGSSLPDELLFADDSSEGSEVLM
Procedure, shortened: as §1

SMILES | IC50 (AXL) [nM] | IC50 (MERTK) [nM] | Mer/Flt3 ratio (FLT3 IC50/Mer IC50) (MERTK)
CC[C@H](C)Nc1ncc2c(OC(CO)CO)ncc([C@H]3CC[C@H](O)CC3)c2n1 [Compound 241] | 1000 to 10000 | 100 to 1000 | ++ (a ratio of between 10 and 100)
COC[C@H](C)Nc1ncc2c(OC3CCOCC3)ncc(C3=CCC4(CC3)OCCO4)c2n1 [Compound 242] | 1000 to 10000 | 100 to 1000 | ++ (a ratio of between 10 and 100)
COC[C@H](C)Nc1ncc2c(OC3CCOCC3)ncc(C3CCC4(CC3)OCCO4)c2n1 [Compound 243] | 1000 to 10000 | ≤ 100 | +++ (a ratio of >100)
CCc1ncc([C@H]2CC[C@H](O)CC2)c2nc(N[C@@H](C)CC)ncc12 [Compound 244] | 100 to 1000 | ≤ 100 | +++ (a ratio of >100)
CC[C@H](C)Nc1ncc2c(OCC(F)(F)F)ncc([C@H]3CC[C@H](O)CC3)c2n1 [Compound 245] | 100 to 1000 | ≤ 100 | +++ (a ratio of >100)
CC[C@H](C)Nc1ncc2c(OC3CC(C)(C)NC(C)(C)C3)ncc([C@H]3CC[C@H](O)CC3)c2n1 [Compound 246] | 100 to 1000 | ≤ 100 | +++ (a ratio of >100)
CC[C@H](C)Nc1ncc2c(OC3C[C@@H](C)O[C@@H](C)C3)ncc([C@H]3CC[C@H](O)CC3)c2n1 (stereo partly drawn) [Compound 247] | 1000 to 10000 | 100 to 1000 | ++ (a ratio of between 10 and 100)
CC[C@H](C)Nc1ncc2c(=O)n(CC34CCC(N)(CC3)CC4)cc([C@H]3CC[C@H](O)CC3)c2n1 [Compound 251] | 100 to 1000 | ≤ 100 | +++ (a ratio of >100)
CCOc1ncc(CC2CCN(C)CC2)c2nc(N[C@@H](C)CC)ncc12 [Compound 253] | 1000 to 10000 | 1000 to 10000 | ++ (a ratio of between 10 and 100)
CCOc1ncc(CC2CCN(C(=O)OC(C)(C)C)CC2)c2nc(N[C@@H](C)CC)ncc12 [Compound 254] | 1000 to 10000 | 1000 to 10000 | + (a ratio of >2.0 and <10)
CC[C@H](C)Nc1ncc2c(C)ncc([C@H]3CC[C@H](O)CC3)c2n1 [Compound 255] | ≤ 100 | ≤ 100 | +++ (a ratio of >100)
CC[C@H](C)Nc1ncc2c(OCC34CCC(O)(CC3)CC4)ncc([C@H]3CC[C@H](O)CC3)c2n1 [Compound 256] | 1000 to 10000 | ≤ 100 | +++ (a ratio of >100)
CC[C@H](C)Nc1ncc2c(=O)n(CC34CCC(O)(CC3)CC4)cc([C@H]3CC[C@H](O)CC3)c2n1 [Compound 257] | ≤ 100 | ≤ 100 | +++ (a ratio of >100)
COC[C@H](C)Nc1ncc2c(OC3CC(C)(C)N(C)C(C)(C)C3)ncc([C@H]3CC[C@H](O)CC3)c2n1 [Compound 259] | ≤ 100 | ≤ 100 | +++ (a ratio of >100)
COC[C@H](C)Nc1ncc2c(O[C@H]3CC[C@H](O)CC3)ncc([C@H]3CC[C@H](O)CC3)c2n1 [Compound 260] | 100 to 1000 | ≤ 100 | +++ (a ratio of >100)
CC[C@H](C)Nc1ncc2c(O[C@H]3CC[C@H](C(C)(C)O)CC3)ncc([C@H]3CC[C@H](O)CC3)c2n1 [Compound 261] | 100 to 1000 | ≤ 100 | ++ (a ratio of between 10 and 100)
O[C@H]1CC[C@H](c2cnc(OC3CCNCC3)c3cnc(Nc4ccccc4F)nc32)CC1 [Compound 262] | 100 to 1000 | ≤ 100 | ++ (a ratio of between 10 and 100)
CC[C@H](C)Nc1ncc2c(=O)n(C[C@@H]3COCCN3C)cc([C@H]3CC[C@H](O)CC3)c2n1 [Compound 263] | 100 to 1000 | ≤ 100 | +++ (a ratio of >100)
CC[C@H](C)Nc1ncc2c(=O)n(CC34CCC(N(C)C)(CC3)CC4)cc([C@H]3CC[C@H](O)CC3)c2n1 [Compound 264] | ≤ 100 | ≤ 100 | +++ (a ratio of >100)
CC[C@H](C)Nc1ncc2c(=O)n(C[C@H]3COCCN3C)cc([C@H]3CC[C@H](O)CC3)c2n1 [Compound 265] | 1000 to 10000 | ≤ 100 | +++ (a ratio of >100)
CC[C@H](C)Nc1ncc2c(=O)n([C@H]3CC[C@H](N(C)C)C3)cc([C@H]3CC[C@H](O)CC3)c2n1 [Compound 266] | 100 to 1000 | ≤ 100 | +++ (a ratio of >100)
CC[C@H](C)Nc1ncc2c(O[C@H]3CC[C@H](N(C)C)C3)ncc([C@H]3CC[C@H](O)CC3)c2n1 [Compound 267] | ≤ 100 | ≤ 100 | +++ (a ratio of >100)
CC(C)(C)Nc1ncc2c(OC3CCNCC3)ncc([C@H]3CC[C@H](O)CC3)c2n1 [Compound 268] | 100 to 1000 | ≤ 100 | +++ (a ratio of >100)
O[C@H]1CC[C@H](c2cnc(OC3CCNCC3)c3cnc(Nc4ccc(F)cc4)nc32)CC1 [Compound 269] | ≤ 100 | ≤ 100 | + (a ratio of >2.0 and <10)
O[C@H]1CC[C@H](c2cnc(OC3CCNCC3)c3cnc(Nc4cccc(F)c4)nc32)CC1 [Compound 270] | ≤ 100 | ≤ 100 | + (a ratio of >2.0 and <10)
CC[C@H](C)Nc1ncc2c(=O)n(-c3ccc(N)cc3)cc([C@H]3CC[C@H](O)CC3)c2n1 [Compound 271] | 1000 to 10000 | ≤ 100 | +++ (a ratio of >100)
